{"source": "patent US9725449B2", "about": "“Tricyclic compounds as anticancer agents” (BRISTOL-MYERS SQUIBB COMPANY, priority 2015, dated 2017)"}
{"target": "BRD4 (Homo sapiens, UniProt O60885)", "assay": "Time resolved fluorescence resonance energy transfer (TR-FRET) binding assay, bromodomain BRD4", "settings": "FRET BRD4 IC50 (nM), one of the FRET assays described", "units": {"IC50": "nM"}}
{"smiles": "[2H]C([2H])([2H])c1nnn(C)c1-c1cnc2c3ccc(N4C5CCCC4CC5)nc3n([C@H](c3ccccc3)C3CCOCC3)c2c1", "note": "[Example 184, 11-{8-Azabicyclo[3.2.1]octan-8-yl}-5-[4-(^2H3)methyl-1-methyl-1H-1,2,3-triazol-5-yl]-8-[(S)-oxan-4-yl(phenyl)methyl]-3,8,10-triazatricyclo[7.4.0.0^2,^7]trideca-1(9),2(7),3,5,10,12-hexaene]", "IC50": "< 10"}
{"target": "BRD4 (Homo sapiens, UniProt O60885)", "assay": "Time resolved fluorescence resonance energy transfer (TR-FRET) binding assay, bromodomain BRD4", "settings": "one of the FRET assays described; read-out: FRET BRD4 IC50", "units": {"IC50": "nM"}}
{"smiles": "[2H]C([2H])([2H])c1nnn(C)c1-c1cnc2c3c(OC)nc(C(C)=O)cc3n([C@H](c3ncccc3F)C3CCOCC3)c2c1", "note": "[Example 308, 1-{8-[(S)-(3-Fluoropyridin-2-yl)(oxan-4-yl)methyl]-13-methoxy-5-[4-(^2H3)methyl-1-methyl-1H-1,2,3-triazol-5-yl]-3,8,12-triazatricyclo[7.4.0.0^2,^7]trideca-1(9),2(7),3,5,10,12-hexaen-11-yl}ethan-1-one]", "IC50": "< 10"}
{"smiles": "CC(=O)c1cc2c(cn1)c1ncc(-c3c(C)noc3C)cc1n2[C@H](c1ccc(F)cc1)C1CCOCC1", "note": "[Example 330, 1-[5-(Dimethyl-1,2-oxazol-4-yl)-8-[(S)-(4-fluorophenyl)(oxan-4-yl)methyl]-3,8,12-triazatricyclo[7.4.0.0^2,^7]trideca-1(9),2(7),3,5,10,12-hexaen-11-yl]ethan-1-one]", "IC50": "< 10"}
{"smiles": "[2H]C([2H])([2H])c1nnn(C)c1-c1cnc2c3c(OC)ncc(S(C)(=O)=O)c3n([C@H](c3ccccc3)C3CCOCC3)c2c1", "note": "[Example 47, 10-Methanesulfonyl-13-methoxy-5-[4-(^2H3)methyl-1-methyl-1H-1,2,3-triazol-5-yl]-8-[(S)-oxan-4-yl(phenyl)methyl]-3,8,12-triazatricyclo[7.4.0.0^2,^7]trideca-1(13),2(7),3,5,9,11-hexaene]", "IC50": "< 1"}
{"smiles": "[2H]C([2H])([2H])c1nnn(C)c1-c1cnc2c3c(OC)ncc(S(C)(=O)=O)c3n([C@@H](c3ccccc3)C3CCC(F)(F)CC3)c2c1", "note": "[Example 82, 8-[(R)-(4,4-Difluorocyclohexyl)(phenyl)methyl]-10-methanesulfonyl-13-methoxy-5-[4-(^2H3)methyl-1-methyl-1H-1,2,3-triazol-5-yl]-3,8,12-triazatricyclo[7.4.0.0^2,^7]trideca-1(13),2(7),3,5,9,11-hexaene]", "IC50": "< 1500"}
{"smiles": "Cc1nnn(C)c1-c1cnc2c3ccc(-c4cnn(C5CC5)c4)nc3n([C@H](c3ccccc3)C3CCOCC3)c2c1", "note": "[Example 150, 11-(1-Cyclopropyl-1H-pyrazol-4-yl)-5-(dimethyl-1H-1,2,3-triazol-5-yl)-8-[(S)-oxan-4-yl(phenyl)methyl]-3,8,10-triazatricyclo[7.4.0.0^2,^7]trideca-1(13),2(7),3,5,9,11-hexaene]", "IC50": "< 1"}
{"smiles": "[2H]C([2H])([2H])c1nnn(C)c1-c1cnc2c3c(Cl)ncc(F)c3n([C@H](c3ccccc3)C3CCOCC3)c2c1", "note": "[Example 280, 13-Chloro-10-fluoro-5-[4-(^2H3)methyl-1-methyl-1H-1,2,3-triazol-5-yl]-8-[(S)-oxan-4-yl(phenyl)methyl]-3,8,12-triazatricyclo[7.4.0.0^2,^7]trideca-1(13),2(7),3,5,9,11-hexaene]", "IC50": "< 10"}
{"smiles": "Cc1nnn(C)c1-c1cnc2c3cnc(C(C)(C)O)cc3n([C@H](c3ccc(F)cc3)C3CCOCC3)c2c1", "note": "[Example 336]", "IC50": "< 10"}
{"smiles": "[2H]C([2H])([2H])c1nnn(C)c1-c1cnc2c3c(OC)ncc(S(C)(=O)=O)c3n(C(c3ncccc3F)C3CCC(F)(F)CC3)c2c1", "note": "(stereo not shown) [Example 73, 8-[(4,4-Difluorocyclohexyl)(3-fluoropyridin-2-yl)methyl]-10-methanesulfonyl-13-methoxy-5-[4-(^2H3)methyl-1-methyl-1H-1,2,3-triazol-5-yl]-3,8,12-triazatricyclo[7.4.0.0^2,^7]trideca-1(13),2(7),3,5,9,11-hexaene]", "IC50": "< 1500"}
{"smiles": "COc1nccc2c3ncc(-c4c(C)nnn4C)cc3n(C(c3c(F)cc(F)cc3F)C3CCOCC3)c12", "note": "(racemic) [Example 24, 5-(Dimethyl-1H-1,2,3-triazol-5-yl)-10-methoxy-8-[oxan-4-yl(2,4,6-trifluorophenyl)methyl]-3,8,11-triazatricyclo[7.4.0.0^2,^7]trideca-1(13),2(7),3,5,9,11-hexaene]", "IC50": "< 10"}
{"smiles": "Cc1nnn(C)c1-c1cnc2c3c(OCC4CC4)ncc(S(C)(=O)=O)c3n([C@H](c3ccccc3)C3CCOCC3)c2c1", "note": "[Example 101, 13-(Cyclopropylmethoxy)-5-(dimethyl-1H-1,2,3-triazol-5-yl)-10-methanesulfonyl-8-[(S)-oxan-4-yl(phenyl)methyl]-3,8,12-triazatricyclo[7.4.0.0^2,^7]trideca-1(13),2(7),3,5,9,11-hexaene]", "IC50": "< 10"}
{"smiles": "COc1cc2c(c(C)n1)c1ncc(-c3c(C)nnn3C)cc1n2[C@H](c1ccccc1)C1CCOCC1", "note": "[Example 283, 5-(Dimethyl-1H-1,2,3-triazol-5-yl)-11-methoxy-13-methyl-8-[(S)-oxan-4-yl(phenyl)methyl]-3,8,12-triazatricyclo[7.4.0.0^2,^7]trideca-1(9),2(7),3,5,10,12-hexaene]", "IC50": "< 1"}
{"smiles": "Cc1nnn(C)c1-c1cnc2c3c(Cl)ncc(Cl)c3n([C@H](c3ccccc3)C3CCOCC3)c2c1", "note": "[Example 36, 10,13-Dichloro-5-(dimethyl-1H-1,2,3-triazol-5-yl)-8-[(S)-oxan-4-yl(phenyl)methyl]-3,8,12-triazatricyclo[7.4.0.0^2,^7]trideca-1(13),2(7),3,5,9,11-hexaene]", "IC50": "< 10"}
{"smiles": "[2H]C([2H])([2H])c1nnn(C)c1-c1cnc2c3cc(Cl)cnc3n([C@H](c3ccccc3)C3CCOCC3)c2c1", "note": "[Example 347, 12-Chloro-5-[4-(^2H3)methyl-1-methyl-1H-1,2,3-triazol-5-yl]-8-[(S)-oxan-4-yl(phenyl)methyl]-3,8,10-triazatricyclo[7.4.0.0^2,^7]trideca-1(13),2(7),3,5,9,11-hexaene]", "IC50": "< 1500"}
{"smiles": "Cc1noc(C)c1-c1cnc2c3c(NS(=O)(=O)C(C)C)ncc(S(C)(=O)=O)c3n([C@H](c3ccccc3)C3CCOCC3)c2c1", "note": "[Example 100, N-[5-(Dimethyl-1,2-oxazol-4-yl)-10-methanesulfonyl-8-[(S)-oxan-4-yl(phenyl)methyl]-3,8,12-triazatricyclo[7.4.0.0^2,^7]trideca-1(13),2(7),3,5,9,11-hexaen-13-yl]propane-2-sulfonamide]", "IC50": "< 10"}
{"smiles": "[2H]C([2H])([2H])c1nnn(C)c1-c1cnc2c3cnc(C(C)=O)cc3n([C@H](c3ccccc3F)C3CCOCC3)c2c1", "note": "[Example 333]", "IC50": "< 10"}
{"smiles": "COc1nccc2c3ncc(-c4c(C)nnn4C)cc3n(C(c3ccccc3F)C3CCOCC3)c12", "note": "(single isomer, unassigned) [Example 18, 5-(Dimethyl-1H-1,2,3-triazol-5-yl)-8-[(2-fluorophenyl)(oxan-4-yl)methyl]-10-methoxy-3,8,11-triazatricyclo[7.4.0.0^2,^7]trideca-1(13),2(7),3,5,9,11-hexaene]", "IC50": "< 10"}
{"smiles": "[2H]C([2H])([2H])c1nnn(C)c1-c1cnc2c3ccc(C(C)(O)C4CC4)nc3n([C@H](c3ccccc3F)C3CCOCC3)c2c1", "note": "(stereo partly drawn) [Example 242, 1-Cyclopropyl-1-{8-[(S)-(2-fluorophenyl)(oxan-4-yl)methyl]-5-[4-(^2H3)methyl-1-methyl-1H-1,2,3-triazol-5-yl]-3,8,10-triazatricyclo[7.4.0.0^2,^7]trideca-1(13),2(7),3,5,9,11-hexaen-11-yl}ethan-1-ol]", "IC50": "< 10"}
{"smiles": "COc1ncc(S(C)(=O)=O)c2c1c1ncc(-c3c(C)nnn3C)cc1n2[C@H](c1ccccc1)C1CCOCC1", "note": "[Example 46, 5-(Dimethyl-1H-1,2,3-triazol-5-yl)-10-methanesulfonyl-13-methoxy-8-[(S)-oxan-4-yl(phenyl)methyl]-3,8,12-triazatricyclo[7.4.0.0^2,^7]trideca-1(13),2(7),3,5,9,11-hexaene]", "IC50": "< 10"}
{"smiles": "CC(=O)c1cnc2c3ccc(-c4c(C)nnn4C)nc3n([C@@H](c3ccccc3)C3CCOCC3)c2c1", "note": "[Example 377, 1-[11-(Dimethyl-1H-1,2,3-triazol-5-yl)-8-[(R)-oxan-4-yl(phenyl)methyl]-3,8,10-triazatricyclo[7.4.0.0^2,^7]trideca-1(9),2(7),3,5,10,12-hexaen-5-yl]ethan-1-one]", "IC50": "< 10"}
{"smiles": "CCCC(c1ccccc1)n1c2cc(-c3c(C)nnn3C)ncc2c2ncc(C(C)(C)O)cc21", "note": "(stereo not shown) [Example 372]", "IC50": "< 1500"}
{"smiles": "Cc1nnn(C)c1-c1cnc2c3ccc(-c4ccnn4C)nc3n([C@H](c3ccccc3F)C3CCOCC3)c2c1", "note": "[Example 229, 5-(Dimethyl-1H-1,2,3-triazol-5-yl)-8-[(S)-(2-fluorophenyl)(oxan-4-yl)methyl]-11-(1-methyl-1H-pyrazol-5-yl)-3,8,10-triazatricyclo[7.4.0.0^2,^7]trideca-1(13),2(7),3,5,9,11-hexaene]", "IC50": "< 10"}
{"smiles": "[2H]C([2H])([2H])Oc1ncc(S(C)(=O)=O)c2c1c1ncc(-c3c(C)noc3C([2H])([2H])[2H])cc1n2[C@H](c1ccc(F)cc1)C1CCOCC1", "note": "[Example 55, 8-[(S)-(4-Fluorophenyl)(oxan-4-yl)methyl]-10-methanesulfonyl-13-(^2H3)methoxy-5-[5-(^2H3)methyl-3-methyl-1,2-oxazol-4-yl]-3,8,12-triazatricyclo[7.4.0.0^2,^7]trideca-1(13),2(7),3,5,9,11-hexaene]", "IC50": "< 1"}
{"smiles": "[2H]C([2H])([2H])c1nnn(C)c1-c1cnc2c3c(OCC4CC4)ncc(S(C)(=O)=O)c3n([C@H](c3ccccc3)C3CCOCC3)c2c1", "note": "[Example 59, 13-(Cyclopropylmethoxy)-10-methanesulfonyl-5-[4-(^2H3)methyl-1-methyl-1H-1,2,3-triazol-5-yl]-8-[(S)-oxan-4-yl(phenyl)methyl]-3,8,12-triazatricyclo[7.4.0.0^2,^7]trideca-1(13),2(7),3,5,9,11-hexaene]", "IC50": "< 1"}
{"smiles": "COc1nnn(C)c1-c1cnc2c3ccc(N4CCN(C)CC4)nc3n([C@H](c3ccccc3F)C3CCOCC3)c2c1", "note": "[Example 254, 8-[(S)-(2-Fluorophenyl)(oxan-4-yl)methyl]-5-(4-methoxy-1-methyl-1H-1,2,3-triazol-5-yl)-11-(4-methylpiperazin-1-yl)-3,8,10-triazatricyclo[7.4.0.0^2,^7]trideca-1(13),2(7),3,5,9,11-hexaene]", "IC50": "< 1"}
